{
  "source": "paper PMC9521027",
  "about": "(ACS Omega, 2022)",
  "key": {"[1]": {"target": "T1, URAT1 K393A mutant (Homo sapiens, UniProt Q96S37, K393A)", "T1 sequence (Q96S37 1-553 K393A)": "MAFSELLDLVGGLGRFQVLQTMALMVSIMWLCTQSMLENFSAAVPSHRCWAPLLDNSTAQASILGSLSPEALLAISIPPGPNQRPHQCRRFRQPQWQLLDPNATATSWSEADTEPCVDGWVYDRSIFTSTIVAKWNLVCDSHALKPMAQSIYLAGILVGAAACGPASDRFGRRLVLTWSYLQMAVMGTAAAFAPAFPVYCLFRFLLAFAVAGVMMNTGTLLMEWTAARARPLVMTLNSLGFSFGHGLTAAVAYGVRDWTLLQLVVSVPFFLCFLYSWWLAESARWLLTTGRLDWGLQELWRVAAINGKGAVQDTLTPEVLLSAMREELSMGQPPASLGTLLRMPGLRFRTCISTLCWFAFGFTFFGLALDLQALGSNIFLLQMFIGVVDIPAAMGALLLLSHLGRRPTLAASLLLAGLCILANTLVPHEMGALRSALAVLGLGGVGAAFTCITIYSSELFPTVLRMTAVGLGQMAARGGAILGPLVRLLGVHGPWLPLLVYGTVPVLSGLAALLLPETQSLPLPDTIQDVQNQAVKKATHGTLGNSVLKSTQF", "test": "14C-uric acid uptake assay in transfected HEK293 cells", "format": "cell-based", "conditions": "K393A, HEK293 cells"}, "[2]": {"target": "T2, URAT1 WT (Homo sapiens, UniProt Q96S37)", "T2 sequence (Q96S37 1-553)": "T1 sequence (Q96S37 1-553 K393A) with A393K", "test": "Saturation kinetic experiment of 14C-uric acid uptake", "format": "cell-based", "conditions": "wild-type group"}, "[3]": {"target": "T2, URAT1 WT", "test": "Competitive inhibition test of unlabeled uric acid on 14C-uric acid uptake", "format": "cell-based"}, "[4]": {"target": "T3, URAT1 K393R mutant (Homo sapiens, UniProt Q96S37, K393R)", "T3 sequence (Q96S37 1-553 K393R)": "T1 sequence (Q96S37 1-553 K393A) with A393R", "test": "Competitive inhibition test of unlabeled uric acid on 14C-uric acid uptake", "format": "cell-based"}, "[5]": {"target": "T4, URAT1 K393H mutant (Homo sapiens, UniProt Q96S37, K393H)", "T4 sequence (Q96S37 1-553 K393H)": "T1 sequence (Q96S37 1-553 K393A) with A393H", "test": "14C-uric acid binding assay with membrane protein", "conditions": "2.5 μg membrane protein, 25 μM 14C-uric acid, 30 min"}, "[6]": {"target": "T3, URAT1 K393R mutant", "test": "14C-uric acid binding assay with membrane protein", "conditions": "2.5 μg membrane protein, 25 μM 14C-uric acid, 30 min"}},
  "note": "Numbering of substitutions follows the chain as printed.",
  "data": [
    {"smiles": "O=c1[nH]c(=O)c2[nH]c(=O)[nH]c2[nH]1", "note": "[uric acid]", "values": [
      {"measurement": "14C-urate transport capacity lost compared with WT", "setting": "[1]", "value": "70–80%"},
      {"measurement": "Vmax", "setting": "[2]", "value": 654.12, "unit": "µM"},
      {"measurement": "IC50", "setting": "[3]", "value": "115 ± 6.36", "unit": "µM"},
      {"measurement": "IC50", "setting": "[4]", "value": "113 ± 10.1", "unit": "µM"},
      {"measurement": "14C-uric acid binding capacity compared with WT", "setting": "[5]", "value": "similar"},
      {"measurement": "14C-uric acid binding capacity compared with WT", "setting": "[6]", "value": "similar"}
    ]}
  ]
}
